These results are taken from patent US9718828B2 (MERCK SHARP & DOHME CORP., priority 2011, dated 2017).

Structures can show the parent of a compound that is named as a salt.

For the first test, the target named is Btk enzyme (His-Btk) (Homo sapiens (Human), UniProt Q06187). The test is described as follows: Btk enzyme activity, IMAP fluorescence polarization assay (Assay Method A).
Sequence of Btk enzyme (His-Btk) (Q06187 whole entry): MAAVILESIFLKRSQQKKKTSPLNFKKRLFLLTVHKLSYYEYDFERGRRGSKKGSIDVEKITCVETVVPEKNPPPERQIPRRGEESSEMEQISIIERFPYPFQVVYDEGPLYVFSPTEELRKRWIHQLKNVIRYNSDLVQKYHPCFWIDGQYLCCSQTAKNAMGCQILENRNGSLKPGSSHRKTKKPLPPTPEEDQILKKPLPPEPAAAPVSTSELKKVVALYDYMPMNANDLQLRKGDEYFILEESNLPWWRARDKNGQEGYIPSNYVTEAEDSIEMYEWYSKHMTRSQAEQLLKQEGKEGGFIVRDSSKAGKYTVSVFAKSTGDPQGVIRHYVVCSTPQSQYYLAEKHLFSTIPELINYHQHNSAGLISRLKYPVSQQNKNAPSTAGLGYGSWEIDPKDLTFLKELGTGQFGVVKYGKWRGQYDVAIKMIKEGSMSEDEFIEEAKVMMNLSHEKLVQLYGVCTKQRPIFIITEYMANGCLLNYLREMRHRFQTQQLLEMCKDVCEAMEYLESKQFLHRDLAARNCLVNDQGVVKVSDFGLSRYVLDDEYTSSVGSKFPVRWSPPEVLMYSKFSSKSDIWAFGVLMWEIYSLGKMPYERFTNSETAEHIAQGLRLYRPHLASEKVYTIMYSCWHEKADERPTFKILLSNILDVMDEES
Conditions: not given
(Fluorescence polarisation rises when a labelled molecule tumbles more slowly, as on binding a larger partner.)
What is called EC50 is the concentration needed to bring the measured effect to its halfway point. Molecule `Nc1nccn2c([C@@H]3CCCN(C(=O)CO)C3)nc(-c3ccc(C(=O)Nc4ccccn4)cc3)c12` [Example 53, (R)-4-(8-amino-3-(1-(2-hydroxyacetyl)piperidin-3-yl)imidazo[1,5-a]pyrazin-1-yl)-N-(pyridin-2-yl)benzamide] gave an EC50 of 10 to 100 nM.
Same read-out and setting: next, `CCN(CC)c1nc(-c2ccc(C(=O)Nc3cc(C(F)(F)F)ccn3)cc2)c2c(N)nccn12` [Example 216, 4-(8-amino-3-(diethylamino)imidazo[1,5-a]pyrazin-1-yl)-N-(4-(trifluoromethyl)pyridin-2-yl)benzamide]: 10 to 100 nM; `Nc1ncnn2c([C@@H]3CCCNC3)nc(-c3ccc(C(=O)Nc4cc(C(F)(F)F)ccn4)cc3)c12` [Example 258, (R)-4-(4-amino-7-(piperidin-3-yl)imidazo[1,5-f][1,2,4]triazin-5-yl)-N-(4-(trifluoromethyl)pyridin-2-yl)benzamide]: 10 to 100 nM.
Turning to `Nc1nccn2c([C@@H]3CCCN(C(=O)C(=O)C(F)(F)F)C3)nc(-c3ccc(C(=O)Nc4cc(C5CC5)ccn4)cc3)c12` [Example 115, (R)-4-(8-amino-3-(1-(3,3,3-trifluoro-2-oxopropanoyl)piperidin-3-yl)imidazo[1,5-a]pyrazin-1-yl)-N-(4-cyclopropylpyridin-2-yl)benzamide], the EC50 fell in the range of 100 to 1000 nM.
For `Nc1nccn2c([C@@H]3CCCN(CC4CCOC4)C3)nc(-c3ccc(C(=O)Nc4cc(C5CC5)ccn4)cc3)c12` (stereo partly drawn) [Example 145, 4-(8-amino-3-((3R)-1-((tetrahydrofuran-3-yl)methyl)piperidin-3-yl)imidazo[1,5-a]pyrazin-1-yl)-N-(4-cyclopropylpyridin-2-yl)benzamide, TFA salt], the EC50 fell in the range of 10 to 100 nM.
`CC1(C(=O)N2CCC[C@@H](c3nc(-c4ccc(C(=O)Nc5cc(C(F)(F)F)ccn5)cc4)c4c(N)nccn34)C2)CCC1` [Example 70, (R)-4-(8-amino-3-(1-(1-methylcyclobutanecarbonyl)piperidin-3-yl)imidazo[1,5-a]pyrazin-1-yl)-N-(4-(trifluoromethyl)pyridin-2-yl)benzamide]: the EC50 was less than 10 nM.

Staying with this test, now noted: read-out: EC50 Btk activity values - Assay Method A; IMAP-FP, 60 min pre-incubation, 5 μM ATP; class 100-1000 is given as ≧100 nM-<1 μM.
On to `CC(C)(F)C(=O)N1CCOC(c2nc(-c3ccc(C(=O)Nc4cc(C(F)(F)F)ccn4)cc3)c3c(N)nccn23)C1` (centres unmarked) [Example 174, 4-(8-amino-3-(4-(2-fluoro-2-methylpropanoyl)morpholin-2-yl)imidazo[1,5-a]pyrazin-1-yl)-N-(4-(trifluoromethyl)pyridin-2-yl)benzamide], for which the EC50 was less than 10 nM.
The same measure, in the same setting: in the case of `CCNC(=O)C1CCCN(c2nc(-c3ccc(C(=O)Nc4cc(C(F)(F)F)ccn4)cc3)c3c(N)nccn23)C1` (centres unmarked) [Example 236, 1-(8-amino-1-(4-(4-(trifluoromethyl)pyridin-2-ylcarbamoyl)phenyl)imidazo[1,5-a]pyrazin-3-yl)-N-ethylpiperidine-3-carboxamide, TFA salt] it was less than 10 nM; in that of `CCN(CC)C(=O)C1CCCN(c2nc(-c3ccc(C(=O)Nc4cc(C5CC5)ccn4)cc3)c3c(N)nccn23)C1` (centres unmarked) [Example 246, 1-(8-amino-1-(4-(4-cyclopropylpyridin-2-ylcarbamoyl)phenyl)imidazo[1,5-a]pyrazin-3-yl)-N,N-diethylpiperidine-3-carboxamide, TFA salt], less than 10 nM.
In the case of `CCCc1ccnc(NC(=O)c2ccc(-c3nc([C@H]4CC[C@H](O)CC4)n4ccnc(N)c34)cc2F)c1` [Example 13, 4-(8-amino-3-((trans)-4-hydroxycyclohexyl)imidazo[1,5-a]pyrazin-1-yl)-2-fluoro-N-(4-propylpyridin-2-yl)benzamide], the EC50 is less than 10 nM.
Still for that read-out and setting: in the case of `Cc1nnc(C(=O)N2CCC[C@@H](c3nc(-c4ccc(C(=O)Nc5cc(C6CC6)ccn5)cc4)c4c(N)nccn34)C2)o1` [Example 116, (R)-4-(8-amino-3-(1-(5-methyl-1,3,4-oxadiazole-2-carbonyl)piperidin-3-yl)imidazo[1,5-a]pyrazin-1-yl)-N-(4-cyclopropylpyridin-2-yl)benzamide] it was less than 10 nM; in that of `C[C@H]1CC[C@@H](c2nc(-c3ccc(C(=O)Nc4cc(C5CC5)ccn4)cc3)c3c(N)nccn23)CN1C(=O)N1CCCCC1` (relative stereo) [Example 184, 4-(8-amino-3-((cis)-6-methyl-1-(piperidine-1-carbonyl)piperidin-3-yl)imidazo[1,5-a]pyrazin-1-yl)-N-(4-cyclopropylpyridin-2-yl)benzamide, TFA salt], less than 10 nM.
On the same count and under the same terms, next, `C[C@H]1CC[C@@H](c2nc(-c3ccc(C(=O)Nc4ccccn4)cc3)c3c(N)nccn23)CN1C(=O)C1CCC1` (relative stereo) [Example 204, 4-(8-amino-3-((cis)-1-(cyclobutanecarbonyl)-6-methylpiperidin-3-yl)imidazo[1,5-a]pyrazin-1-yl)-N-(pyridin-2-yl)benzamide, TFA salt]: less than 10 nM; `COCCC(=O)N1C[C@@H](O)C[C@@H](c2nc(-c3ccc(C(=O)Nc4cc(C(F)(F)F)ccn4)cc3)c3c(N)nccn23)C1` (relative stereo) [Example 181, 4-(8-amino-3-((cis)-5-hydroxy-1-(3-methoxypropanoyl)piperidin-3-yl)imidazo[1,5-a]pyrazin-1-yl)-N-(4-(trifluoromethyl)pyridin-2-yl)benzamide]: less than 10 nM; `CCCc1ccnc(NC(=O)c2ccc(-c3nc(N4CCC4)n4ccnc(N)c34)cc2)c1` [Example 208, 4-(8-amino-3-(azetidin-1-yl)imidazo[1,5-a]pyrazin-1-yl)-N-(4-propylpyridin-2-yl)benzamide]: less than 10 nM.
Still for that read-out and setting: next, `CCNC(=O)N[C@H]1CCC[C@@H](c2nc(-c3ccc(C(=O)Nc4cc(C(F)(F)F)ccn4)cc3)c3c(N)nccn23)C1` (relative stereo) [Example 155, 4-(8-amino-3-((cis)-3-(3-ethylureido)cyclohexyl)imidazo [1,5-a]pyrazin-1-yl)-N-(4-(trifluoromethyl)pyridin-2-yl)benzamide]: less than 10 nM; `Nc1nccn2c([C@@H]3CCC[C@@H](N)C3)nc(-c3ccc(C(=O)Nc4cc(C(F)(F)F)ccn4)cc3)c12` (relative stereo) [Example 165, 4-(8-amino-3-((trans)-3-aminocyclohexyl)imidazo[1,5-a]pyrazin-1-yl)-N-(4-(trifluoromethyl)pyridin-2-yl)benzamide]: less than 10 nM; `Nc1nccn2c([C@@H]3CCC[C@H](NC(=O)C4CC4)C3)nc(-c3ccc(C(=O)Nc4cc(C(F)(F)F)ccn4)cc3)c12` (relative stereo) [Example 156, 4-(8-amino-3-((cis)-3-(cyclopropanecarboxamido)cyclohexyl)imidazo[1,5-a]pyrazin-1-yl)-N-(4-(trifluoromethyl)pyridin-2-yl)benzamide]: less than 10 nM.
With `CCC(=O)N1C[C@H](c2nc(-c3ccc(C(=O)Nc4ccccn4)cc3)c3c(N)nccn23)CC[C@@H]1C` (relative stereo) [Example 207, 4-(8-amino-3-((cis)-6-methyl-1-propionylpiperidin-3-yl)imidazo[1,5-a]pyrazin-1-yl)-N-(pyridin-2-yl)benzamide, TFA salt], the EC50 was less than 10 nM.
On the same count and under the same terms, next, `Nc1nccn2c([C@@H]3CCCN(CC4CCOC4)C3)nc(-c3ccc(C(=O)Nc4cc(C(F)(F)F)ccn4)cc3)c12` (stereo partly drawn) [Example 142, 4-(8-amino-3-((3R)-1-((tetrahydrofuran-3-yl)methyl)piperidin-3-yl)imidazo[1,5-a]pyrazin-1-yl)-N-(4-(trifluoromethyl)pyridin-2-yl)benzamide, TFA salt]: less than 10 nM.
